According to ChEMBL document CHEMBL1909046, “DrugMatrix in vitro pharmacology data”:

Target: Cytochrome P450 2C9 (Homo sapiens, UniProt P11712)
Sequence (P11712 whole entry): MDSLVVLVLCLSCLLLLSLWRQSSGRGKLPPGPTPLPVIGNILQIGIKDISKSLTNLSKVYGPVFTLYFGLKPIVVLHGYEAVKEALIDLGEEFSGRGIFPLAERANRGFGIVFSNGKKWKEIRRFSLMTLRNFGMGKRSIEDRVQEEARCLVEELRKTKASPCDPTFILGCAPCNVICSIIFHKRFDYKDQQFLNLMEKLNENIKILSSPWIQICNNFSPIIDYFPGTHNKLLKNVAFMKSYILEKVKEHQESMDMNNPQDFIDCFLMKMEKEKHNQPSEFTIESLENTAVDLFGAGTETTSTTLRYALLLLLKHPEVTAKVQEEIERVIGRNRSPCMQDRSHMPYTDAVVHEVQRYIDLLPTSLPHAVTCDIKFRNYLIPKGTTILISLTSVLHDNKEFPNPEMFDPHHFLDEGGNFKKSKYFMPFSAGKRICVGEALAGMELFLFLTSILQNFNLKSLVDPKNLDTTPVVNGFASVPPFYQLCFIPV

SMILES: O=C1CCc2cc(OCCCCc3nnnn3C3CCCCC3)ccc2N1 [CILOSTAZOL]
- IC50: 10 µM
